Test results as given in patent publication US20160257710A1, “SELECTIVE INHIBITORS OF PROTEINASE 3” (INSERM (INSTITUT NATIONAL DE LA SANTÉ ET LA RECHERCHE …, priority 2013, published 2016).
Numbering of substitutions follows the chain as printed. The star is where a group is joined. EDDnp = O=[N+]([O-])c1ccc(NCCN*)c([N+](=O)[O-])c1

Assays:
Assay type in all cases: biochemical
[1] = target: T1, wtPR3 (Homo sapiens, UniProt P24158); assay: Hydrolysis of FRET substrates, specificity constant kcat/KM
T1 sequence (P24158 28-248): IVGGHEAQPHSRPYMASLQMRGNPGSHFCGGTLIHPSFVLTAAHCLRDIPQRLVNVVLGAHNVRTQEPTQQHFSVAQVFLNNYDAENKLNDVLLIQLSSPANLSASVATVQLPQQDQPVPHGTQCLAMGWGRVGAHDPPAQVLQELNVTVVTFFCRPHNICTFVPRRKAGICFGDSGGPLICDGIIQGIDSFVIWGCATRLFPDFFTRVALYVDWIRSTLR
Method: (§1) Another critical difference between the two proteases is the replacement of a charged arginyl residue at position 217 in HNE by an Ile in PR3 in the vicinity of the S4 subsite. We investigated the importance of the S4 subsite in PR3 by producing two recombinant PR3 molecules with a […] substitution at position 99 (PR3K99L) and an Ile for Arg substitution at position 217 (PR3I217R). Wild type and recombinant PR3 were then assayed with FRET substrates derived from the PR3/NE substrate Abz-QPMAVVQSVPQ-EDDnp, and bearing either a negatively charged residue (Abz-QDMAVVQSVPQ-EDDnp) or a positively charged residue (QKMAVVQSVPQ-EDDnp) at P4. Wild type and recombinant proteases all cleave the original substrate at the V—V bond with about the same kcat/Km (Table 2).
We observed that a large panel of amino acid residues could be accommodated at the PR3 P3 subsite using a series of FRET substrates but a Tyr was preferred at this position (Table 3).

[2] = target: T2, PR3K99L (Homo sapiens, UniProt P24158, K115L); assay: as above
T2 construct: made in house; host or cells: Drosophila S2 cells
T2 sequence (P24158 28-248 K115L limits assumed): T1 sequence (P24158 28-248) with K88L
Method: (§2) Recombinant PR3K99L and […] were produced in Drosophila S2 cells using the calcium phosphate method, and stable cell lines were selected using puromycin. Proteins were purified by affinity chromatography on Chelating Sepharose and analyzed by SDS-PAGE. The total protein concentration was determined with a BCA Protein Assay
as §1

[3] = target: T3, PR3I217R (Homo sapiens, UniProt P24158, I221R); assay: as above
T3 construct: made in house; host or cells: Drosophila S2 cells
T3 sequence (P24158 28-248 I221R limits assumed): T1 sequence (P24158 28-248) with I194R
Method: as §2, §1

[4] = target: T4, PR3 (Homo sapiens, UniProt P24158); assay: Inhibition of protease activity in crude lung secretions of patients (IPF, cystic fibrosis); conditions: 30 min incubation, IPF and CF samples
T4 construct: in a lysate of purified human neutrophils; endogenous in cells; host or cells: purified human neutrophils (lysate)
T4 sequence (P24158 28-248): T1 sequence (P24158 28-248)
Method: Crude lung secretions of patients with chronic inflammatory disorders associating significant neutrophil recruitment (IPF, Cystic fibrosis) were used as biological material to assay the efficacy of phosphonate inhibitors. We first measured the rate of cleavage of the PR3 substrate in >3 IPF and >3 CF crude samples before and after incubation with compounds 2 and 4 (×μM final). All crude samples cleaved the PR3 substrate in the absence of inhibitor and the cleavage always occurred at the expected bond, i.e. the cleavage bond of PR3, as checked by HPLC. The PR3 concentration was in the 0.1-1 μM range in lung secretions, based on the rate of substrate hydrolysis. […] Further, the rate of PR3 inactivation in a crude biological sample […] that of purified PR3, which means that there is no adverse effect impairing the PR3 inhibition in lung secretions of patients with inflammatory disorders.

[5] = target: T5, HNE (Homo sapiens, UniProt P08246); assay: as above; conditions: 30 min incubation, IPF and CF samples
T5 sequence (P08246 30-267): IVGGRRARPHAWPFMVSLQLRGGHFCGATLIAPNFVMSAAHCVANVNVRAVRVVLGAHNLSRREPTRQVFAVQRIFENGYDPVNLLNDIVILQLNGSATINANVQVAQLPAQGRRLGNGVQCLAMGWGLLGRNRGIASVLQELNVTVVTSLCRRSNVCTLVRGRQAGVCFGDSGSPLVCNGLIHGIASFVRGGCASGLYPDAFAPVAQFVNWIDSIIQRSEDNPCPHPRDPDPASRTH

[6] = target: T6, Elastase (Homo sapiens, UniProt P08246); assay: Protease inhibition assay, second order rate constant kobs/[I] (method of Tian and Tsou); conditions: n.s where no significant inhibition
T6 sequence (P08246 30-267): T5 sequence (P08246 30-267)
Method: (§3) The inactivation of proteases by substrate analog inhibitors in the presence of the substrate by competition for the enzyme-binding site, was measured by the method of Tian and Tsou (17). In this system, product formation in the presence of an irreversible inhibitor approaches an asymptote, as described by
(§4) log([P∞]−[P])=log [P∞]−0.43A[Y]t
(§5) where [P∞] is the concentration of product formed at time approaching infinity, [P] is the concentration of product at time t, [Y] is the inhibitor concentration, and A is the apparent inhibition rate constant in the presence of the substrate. A is given by
(§6) where k+0 is the rate constant for association of the inhibitor with the enzyme, K^−1 is the inverted Michaelis constant, and [S] the substrate concentration. The apparent inhibition rate constant A is the slope of a plot of log([P∞]−[P]) against t, to give the second-order rate constant of inhibition k+0

[7] = target: T7, Proteinase 3 (Homo sapiens, UniProt P24158); assay: as above
T7 sequence (P24158 28-248): T1 sequence (P24158 28-248)
Method: The compounds of the invention are advantageously selective inhibitors of PR3. […] As described under the Examples below (see PR3 inhibition assay), and as is generally known, efficacy of particular inhibitors against a target protease, for example, recombinant human PR3, is determined by combining the target with a substrate (for example Suc-AanV-SBzI), both in the absence of the inhibitor and in the present of different concentrations of such inhibitor to be tested. Typically, the efficacy of irreversible inhibitors are measured in terms of the second order rate constant of inhibition value (11) or kobs/l. Preferred inhibitors of the invention have typically a kobs/I of more than 10 M^−1s^−1, preferably more than 100 M^−1s^−1, and more preferably of more than […].
as §3, §4, §5, §6

[8] = target: T8, CatG (Homo sapiens, UniProt P08311); assay: Inhibition of protease activity in crude lung secretions of patients (IPF, cystic fibrosis); conditions: 30 min incubation, IPF and CF samples
T8 sequence (P08311 21-244): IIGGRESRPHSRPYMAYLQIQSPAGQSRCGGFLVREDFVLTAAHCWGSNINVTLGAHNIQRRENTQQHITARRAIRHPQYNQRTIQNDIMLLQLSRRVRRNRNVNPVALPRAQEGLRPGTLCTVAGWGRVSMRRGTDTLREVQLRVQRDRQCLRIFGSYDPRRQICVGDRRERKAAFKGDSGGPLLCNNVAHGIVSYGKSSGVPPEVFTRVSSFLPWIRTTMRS

| Substance | factor of decrease of kcat/Km versus original substrate, wtPR3 [1] | cleavage by PR3K99L [2] | factor of increase of kcat/Km versus original substrate, PR3I217R [3] [times] | hydrolysis of PR3 substrate in crude lung secretions [4] | HNE activity in crude lung secretions [5] | Elastase kobs/[I] [6] | Proteinase 3 kobs/[I] [7] [M⁻¹ s⁻¹] | kobs/I range ([7]; PR3) | CatG activity in crude lung secretions [8] |
| --- | --- | --- | --- | --- | --- | --- | --- | --- | --- |
| ABZ-Gln-Asp-Met-Ala-Val-Val-Gln-Ser-Val-Pro-Gln-EDDnp (Abz-QDMAVVQSVPQ-EDDnp) [FRET substrate with negatively charged residue at P4] | 3 | completely resists cleavage | 6 |  |  |  |  |  |  |
| Biotin-Pro-Tyr-Asp-Ala^P(O—C6H4-4-Cl)2 [Compound 4] |  |  |  | total inhibition | remained unchanged | n.s | 4168 ± 553 | ~10^3 M^−1s^−1 | remained unchanged |
